# Assay results from patent publication US10086007B2, “Materials and methods for treatment of cystic fibrosis and for induction of ion secretion” (priority 2012, dated 2018).
# How the values were obtained:
# [1] = tested on: ileal mucosa; type: cell-based, mouse
# Text: Normally fed, 8-week-old, male NIH Swiss mice are sacrificed by CO2 inhalation, followed by cervical dislocation. The small intestine is gently removed, and the segment is washed and flushed in ice-cold Ringer's solution. Then the mucosa is separated from the serosa and the muscular layers by stripping through the submucosal plane as previously described (Zhang et al. (2007) J Physiol 581(3):1221-1233). Following exsanguinations, ileal mucosa is obtained from a 10 cm segment close to the caecum. All experiments are approved by the University of Florida Institutional Animal Care and Use Committee.
# Ion transport studies are performed on ileal sheets. Tissues are then mounted in between the two halves of an Ussing type-Lucite chamber with 0.3 cm^2 exposed surface areas (P2304, Physiologic Instruments, San Diego, Calif., USA). Regular Ringer's solution (115 mM NaCl, 25 mM NaHCO3, 4.8 mM K2HPO4, 2.4 mM KH2PO4, 1.2 mM MgCl2 and 1.2 mM CaCl2) bubbled with 95% O2: 5% CO2 is used bilaterally as bathing solution for the tissues and the temperature is maintained constant at 37° C. The chambers are balanced to eliminate osmotic and hydrostatic forces. Resistance due to fluid is also compensated. The tissues are allowed to stabilize. The basal short-circuit current (Isc) and the corresponding conductance (G) are recorded using a computer controlled voltage/current clamp device (VCC MC-8, Physiologic Instruments).
# The tissues are incubated with H-89 for 30 minutes. Increasing concentrations of glucose (0.015-8 mM) are added every 5 minutes and the peak current is noted. Saturation kinetic constant is calculated for the corresponding Km and Vmax for treated and untreated tissues.
# [2] = tested on: Caco-2 cells; assay: Confocal Ca2+ fluorescence microscopy (Fluo-8); type: cell-based
# Method: Caco-2 cells are obtained from ATTC and cultured in Dulbecoo's modified Eagle's medium supplemented with 10% fetal calf serum (FCS) and 1% nonessential amino acids at 37° C. and 5% CO2. Caco-2 cells are passaged for 20-25 times and are seeded (2×10^5 cells/dish) on 5 cm petri-dishes and grown until 80% confluence, when the FCS concentration is changed to 5%. Cells are grown for another 10 days before they are used for functional studies.
# Caco2 cells grown in 25 mm round coverslips are mounted on the bath chamber RC-21BR attached to series 20 stage adapter (Warner Instruments, CT USA). The cells are maintained at 37° C. using a single channel table top heater controller (TC-324B, Warner Instruments, CT USA). Cells are loaded with the fluorescent calcium indicator Fluo-8 AM dye (Cat #0203, TEFLab, Inc., Austin, Tex. USA) at 0.5 μM concentration at room temperature and incubated for 45 minutes. Confocal laser scanning microscopy is performed using an inverted Fluoview 1000 IX81 microscope (Olympus, Tokyo, Japan) and a U Plan S-Apo 20× objective. Fluorescence is recorded by argon lasers with excitation at 488 nm and emission at 515 nm. The Fluorescent images are collected with scanning confocal microscope. […] Changes are recorded and fluorescence is measured for various cells. […]
# [3] = tested on: Caco-2 cells; assay: Ussing chamber Isc in Caco-2 cells grown on permeable inserts; type: cell-based; details: added to the apical side of Caco-2 cells
# Method: Caco-2 cells are obtained from ATTC and cultured in Dulbecoo's modified Eagle's medium supplemented with 10% fetal calf serum (FCS) and 1% nonessential amino acids at 37° C. and 5% CO2. […] Cells are grown for another 10 days before they are used for functional studies.
# [4] = tested on: Caco-2 cells; assay: Gramicidin perforated whole cell currents (patch clamp); type: cell-based; set-up: dose or concentration left out as unconfirmed; details: in the continued presence of glucose
# [5] = tested on: NFA-sensitive current; assay: Isc with NSP4 peptide and glucose (FIG. 6); type: cell-based
# [6] = tested on: chloride secretion; assay: Chloride secretion with NSP4 peptide and glucose (FIG. 7); type: cell-based
# [7] = tested on: small intestine cells; assay: Glucose-induced HCO3- secretion in small intestine cells; type: cell-based; set-up: dose or concentration left out as unconfirmed
structure (smiles),measurement,setting,value
"CO[C@@H]([C@H](O)[C@H](O)CO)[C@@H](O)C=O [3-OMG, 3-O-methylglucose]",Vmax of Isc increase,"[1]; increasing concentration added to lumen side, Michaelis-Menten fit, n=6 tissues",1.9±0.13 μeq·h^−1·cm^−2
same,Km,"[1]; increasing concentration added to lumen side, Michaelis-Menten fit, n=6 tissues, read-out: Km of Isc increase",220 ± 70 µM
same,intracellular Ca^2+ increase compared to similar concentration of glucose,[2],little increase
O=C(O)CN(CC(=O)O)c1ccccc1OCCOc1ccccc1N(CC(=O)O)CC(=O)O [BAPTA],glucose-stimulated increase in intracellular Ca^2+ after pre-incubation,[2]; pre-incubating the cells 45 minutes with BAPTA,fails to show a glucose-stimulated increase
"O=S(=O)(NCCNC/C=C/c1ccc(Br)cc1)c1cccc2cnccc12 [H89, H-89]",effect on glucose-stimulated net increase in Isc,[1]; pre-treatment of small intestine cells with PKA inhibitor,significant reduction
"O=C(O)c1cccnc1Nc1cccc(C(F)(F)F)c1 [NFA, niflumic acid]",inhibition of glucose-stimulated increase in Isc,"[1]; 100 μM to the lumen side, 8 mM glucose",partial inhibition
same,inhibition of glucose-stimulated increase in Isc,[3],significant inhibition
same,effect on glucose activated inward current,[4],inhibits the glucose activated inward current
same,inhibition of anion secretion induced by NSP4 peptide and glucose,[5],not completely inhibited
same,effect on NSP4114-135-stimulated current,[5]; NFA 100 μM,abolishes
same,inhibition of chloride secretion induced by NSP4 peptide and glucose,[6],not completely inhibited
O=C(O)c1cc([N+](=O)[O-])ccc1NCCCc1ccccc1 [NPPB],"inhibition of glucose-induced, anion channel-mediated HCO3^− secretion",[7]; NPPB,significant inhibition
same,"glucose-induced, anion channel-mediated HCO3^− secretion",[7]; with NPPB,4.2±0.7 mEq·h^−1·cm^−2
O=C(CCc1ccc(O)cc1)c1c(O)cc(O)cc1O[C@@H]1O[C@H](CO)[C@@H](O)[C@H](O)[C@H]1O [phlorizin],Isc response to increasing glucose in pre-treated tissues,[1]; tissues pre-treated with phlorizin,no response to glucose
